30 compounds from patent US20230045421A1 (priority 2018, published 2023) can be followed below.

The structures appear in SMILES notation.

For the first assay, the system named is HBV rcDNA. The experiment in a line: HepDE19 assay with bDNA quantitation of HBV rcDNA. Format: cell-based, hepatitis B virus. To be noted: HepDE19 assay, inhibition of formation of rcDNA; read-out: DE-19bDNA EC50. The essentials: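 Compounds, top concentration 25 μM in 8-point duplicate series, were applied to Tet-free HepDE19 cultures for 7 days. Branched-DNA quantitation of HBV rcDNA against untreated wells gave EC50 and EC90 by 4-parameter fit. Viability (CC50) came from ATP luminescence on parallel plates incubated 4 days.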
The EC50 is the concentration that produces a half-maximal response. Regarding `CC(c1c[nH]c(=O)c2ccccc12)N(C[C@@H]1CCCO1)C(=O)Nc1ccc(F)c(Cl)c1` (single isomer, unassigned) [Compound 160], the half-maximal effective concentration (EC50) was found to be 23 µM.

As for `CCN(C(=O)Nc1ccc(F)c(Cl)c1)C(C)c1c[nH]c(=O)c2cnccc12` (single isomer, unassigned) [Compound 152, 3-(3-Chloro-4-fluorophenyl)-1-ethyl-1-(1-(1-oxo-1,2-dihydro-2,7-naphthyridin-4-yl)ethyl)urea], the EC50 was 0.15 µM.

On to `CCN(C(=O)Nc1ccc(F)c(Cl)c1)C(c1c[nH]c(=O)c2ccccc12)C(F)(F)F` (single isomer, unassigned) [Compound 74, 3-(3-chloro-4-fluorophenyl)-1-ethyl-1-(2,2,2-trifluoro-1-(1-oxo-1,2-dihydroisoquinolin-4-yl)ethyl)urea], for which the EC50 came out at 15 µM. Regarding `CC(c1c[nH]c(=O)c2ccccc12)N(CC1CC1)C(=O)Nc1ccc(F)c(Cl)c1` (single isomer, unassigned) [Compound 85, 3-(3-Chloro-4-fluorophenyl)-1-(cyclopropylmethyl)-1-(1-(1-oxo-1,2-dihydroisoquinolin-4-yl)ethyl)urea], the concentration for a half-maximal effect (EC50) was 0.46 µM. Take `CC(c1c[nH]c(=O)c2ccccc12)N(CCC#N)C(=O)Nc1ccc(F)c(Cl)c1` (single isomer, unassigned) [Compound 112, 3-(3-Chloro-4-fluorophenyl)-1-(2-cyanoethyl)-1-(1-(1-oxo-1,2-dihydroisoquinolin-4-yl)ethyl)urea]: the EC50 came out at 2.8 µM. For `CCC(c1cnc(OC)c2ccccc12)N(CC)C(=O)Nc1ccc(F)c(Cl)c1` (single isomer, unassigned) [Compound 36, 3-(3-Chloro-4-fluorophenyl)-1-ethyl-1-(1-(1-methoxyisoquinolin-4-yl)propyl)urea], the concentration for a half-maximal effect (EC50) came to 2.1 µM. In the case of `CCN(C(=O)Nc1ccc(F)c(Cl)c1)C(c1cnc(OC)c2ccccc12)C(C)C` (single isomer, unassigned) [Compound 45, 3-(3-Chloro-4-fluorophenyl)-1-ethyl-1-(1-(1-methoxyisoquinolin-4-yl)-2-methylpropyl)urea], the concentration for a half-maximal effect (EC50) is 19 µM.

As to `CC(c1cn(C2CC2)c(=O)c2ccccc12)N(C)C(=O)Nc1ccc(F)c(Cl)c1` (single isomer, unassigned) [Compound 189, 3-(3-Chloro-4-fluorophenyl)-1-(1-(2-cyclopropyl-1-oxo-1,2-dihydroisoquinolin-4-yl)ethyl)-1-methylurea], the concentration giving a half-maximal response (EC50) was 2.4 µM. Take `CCN(C(=O)Nc1ccc(F)c(Cl)c1)C(C)c1c[nH]c(=O)c2cnccc12` (single isomer, unassigned) [Compound 151, 3-(3-Chloro-4-fluorophenyl)-1-ethyl-1-(1-(1-oxo-1,2-dihydro-2,7-naphthyridin-4-yl)ethyl)urea]: the 50% effective concentration (EC50) was found to be 2 µM. On to `COCCCN(C(=O)Nc1ccc(F)c(Cl)c1)C(C)c1cnc(OC)c2ccccc12` (single isomer, unassigned) [Compound 82, 3-(3-Chloro-4-fluorophenyl)-1-(1-(1-methoxyisoquinolin-4-yl)ethyl)-1-(3-methoxypropyl)urea], for which the EC50 amounted to 0.32 µM.

The same assay, now with this note: HepDE19 assay, inhibition of formation of relaxed circular DNA (rcDNA), bDNA quantitation; read-out: DE-19bDNA EC50.
Turning to `CC(c1c[nH]c(=O)c2cc(F)c(F)cc12)N(C)C(=O)Nc1ccc(F)c(F)c1` (single isomer, unassigned) [Compound 408, 1-(1-(6,7-Difluoro-1-oxo-1,2-dihydroisoquinolin-4-yl)ethyl)-3-(3,4-difluorophenyl)-1-methylurea], the 50% effective concentration (EC50) stood at 3.4 µM. On to `CC(c1cnc(OCc2nc[nH]n2)c2cc(F)c(F)cc12)N(CCCO)C(=O)Nc1ccc(F)c(Cl)c1` (single isomer, unassigned) [Compound 364, 1-(1-(1-((1H-1,2,4-Triazol-3-yl)methoxy)-6,7-difluoroisoquinolin-4-yl)ethyl)-3-(3-chloro-4-fluorophenyl)-1-(3-hydroxypropyl)urea], for which the EC50 was 2 µM. With `CC(c1cnc(OCc2ncn(C)n2)c2cc(F)c(F)cc12)N(CCCO)C(=O)Nc1ccc(F)c(Cl)c1` (single isomer, unassigned) [Compound 349, 3-(3-chloro-4-fluorophenyl)-1-(1-(6,7-difluoro-1-((1-methyl-1H-1,2,4-triazol-3-yl)methoxy)isoquinolin-4-yl)ethyl)-1-(3-hydroxypropyl)urea], the EC50 came to 0.005 µM.

Consider `CC(c1c[nH]c(=O)c2c(F)cc(F)cc12)N(CCCO)C(=O)Nc1ccc(F)cc1` (single isomer, unassigned) [Compound 377, 1-(1-(6,8-Difluoro-1-oxo-1,2-dihydroisoquinolin-4-yl)ethyl)-3-(4-fluorophenyl)-1-(3-hydroxypropyl) urea], for which the EC50 came out at 11 µM. On the same count and under the same terms, the result for `CC(c1cnc(C(N)=O)c2ccccc12)N(C)C(=O)Nc1ccc(F)c(Cl)c1` (single isomer, unassigned) [Compound 329, 4-(1-(3-(3-Chloro-4-fluorophenyl)-1-methylureido)ethyl)isoquinoline-1-carboxamide] reads 0.12 µM; that for `CC(C)CN(C(=O)Nc1ccc(F)cc1)C(C)c1c[nH]c(=O)c2c(F)cc(F)cc12` (single isomer, unassigned) [Compound 375, 1-(1-(6,8-Difluoro-1-oxo-1,2-dihydroisoquinolin-4-yl)ethyl)-3-(4-fluorophenyl)-1-isobutylurea], 1.7 µM. On to `CC(c1c[nH]c(=O)c2c(F)c(F)ccc12)N(C)C(=O)Nc1cccc(F)c1F` (single isomer, unassigned) [Compound 458, 1-(1-(7,8-Difluoro-1-oxo-1,2-dihydroisoquinolin-4-yl)ethyl)-3-(2,3-difluorophenyl)-1-methylurea], for which the EC50 is 14 µM.

Staying with this assay, now noted: Hepatitis B virus, HepDE19, HepDE19 assay, inhibition of formation of rcDNA; read-out: DE-19bDNA EC50.
As to `CCN(C(=O)Nc1ccc(F)c(Cl)c1)C(c1cnc(OC)c2ccccc12)C(F)(F)F` (single isomer, unassigned) [Compound 75, 3-(3-Chloro-4-fluorophenyl)-1-ethyl-1-(2,2,2-trifluoro-1-(1-methoxyisoquinolin-4-yl)ethyl)urea], the EC50 stood at 4.5 µM. On the same count and under the same terms, with `Cc1cc(NC(=O)N(C)C(C)c2c(C)[nH]c(=O)c3ccccc23)ccc1F` (racemic) [Compound 230, 3-(4-Fluoro-3-methylphenyl)-1-methyl-1-(1-(3-methyl-1-oxo-1,2-dihydroisoquinolin-4-yl)ethyl)urea] the figure was 0.12 µM. Still for that read-out and setting: the result for `O=C(Nc1ccc(F)c(Cl)c1)N(CCO)Cc1c[nH]c(=O)c2ccccc12` [Compound 27, 3-(3-Chloro-4-fluorophenyl)-1-(2-hydroxyethyl)-1-((1-oxo-1,2-dihydroisoquinolin-4-yl)methyl)urea] reads 1 µM. Same read-out and setting: with `CCOc1ncc(CN(CC)C(=O)Nc2ccc(F)c(Cl)c2)c2ccccc12` [Compound 17, 3-(3-chloro-4-fluorophenyl)-1-((1-ethoxyisoquinolin-4-yl)methyl)-1-ethylurea] the figure was 1.6 µM. `CC(c1c[nH]c(=O)c2cnccc12)N(C)C(=O)Nc1ccc(F)c(Cl)c1` (stereo not drawn) [Compound 111, 3-(3-Chloro-4-fluorophenyl)-1-methyl-1-(1-(1-oxo-1,2-dihydro-2,7-naphthyridin-4-yl)ethyl)urea]: the concentration giving a half-maximal response (EC50) came to 0.25 µM.

Staying with this assay, now noted: read-out: DE-19bDNA EC50; HepDE19 assay, inhibition of formation of rcDNA.
As to `CCOCCN(C(=O)Nc1ccc(F)c(Cl)c1)C(C)c1c[nH]c(=O)c2ccccc12` (single isomer, unassigned) [Compound 109, 3-(3-Chloro-4-fluorophenyl)-1-(2-ethoxyethyl)-1-(1-(1-oxo-1,2-dihydroisoquinolin-4-yl)ethyl)urea], the concentration giving a half-maximal response (EC50) turned out to be 8 µM. As for `CCN(C(=O)Nc1ccc(F)c(Cl)c1)C(c1ccccc1)c1c[nH]c(=O)c2ccccc12` (single isomer, unassigned) [Compound 70, 3-(3-Chloro-4-fluorophenyl)-1-ethyl-1-((1-oxo-1,2-dihydroisoquinolin-4-yl)(phenyl)methyl)urea], the EC50 worked out at 16 µM. Consider `COCCN(C(=O)Nc1ccc(F)c(Cl)c1)C(C)c1c[nH]c(=O)c2ccccc12` (single isomer, unassigned) [Compound 65, 3-(3-Chloro-4-fluorophenyl)-1-(2-methoxyethyl)-1-(1-(1-oxo-1,2-dihydroisoquinolin-4-yl)ethyl)urea], for which the EC50 came to 10 µM.

The same assay, now with this note: read-out: DE-19bDNA EC50; HepDE19 assay, inhibition of formation of relaxed circular DNA (rcDNA), bDNA quantitation.
Take `CC(c1c[nH]c(=O)c2cc(F)c(F)cc12)N(C)C(=O)Nc1ccc(Cl)cc1` (single isomer, unassigned) [Compound 401, 3-(4-Chlorophenyl)-1-(1-(6,7-difluoro-1-oxo-1,2-dihydroisoquinolin-4-yl)ethyl)-1-methylurea]: the concentration for a half-maximal effect (EC50) was 0.09 µM. As to `CN(C(=O)Nc1ccc(F)c(Cl)c1)C(CO)c1c[nH]c(=O)c2ccccc12` (single isomer, unassigned) [Compound 379, 3-(3-Chloro-4-fluorophenyl)-1-(2-hydroxy-1-(1-oxo-1,2-dihydroisoquinolin-4-yl)ethyl)-1-methylurea], the concentration for a half-maximal effect (EC50) was 0.14 µM. On the same count and under the same terms, with `CC(c1c[nH]c(=O)c2cc(F)c(F)cc12)N(C)C(=O)Nc1ccccc1` (single isomer, unassigned) [Compound 398, 1-(1-(6,7-Difluoro-1-oxo-1,2-dihydroisoquinolin-4-yl)ethyl)-1-methyl-3-phenylurea] the figure was 16 µM; with `CC(c1c[nH]c(=O)c2c(F)c(F)ccc12)N(C)C(=O)Nc1ccccc1` (single isomer, unassigned) [Compound 437, 1-(1-(7,8-difluoro-1-oxo-1,2-dihydroisoquinolin-4-yl)ethyl)-1-methyl-3-phenylurea], 0.14 µM. Consider `CC(c1c[nH]c(=O)c2cc(F)c(F)cc12)N(C)C(=O)Nc1cccc(Cl)c1` (single isomer, unassigned) [Compound 413, 1-(1-(6,7-Difluoro-1-oxo-1,2-dihydroisoquinolin-4-yl)ethyl)-3-(3-chlorophenyl)-1-methylurea], for which the EC50 was 0.018 µM.
